Consider one compound from ChEMBL document CHEMBL1681635, “II. SAR studies of pyridyl-piperazinyl-piperidine derivatives as CXCR3 chemokine antagonists” (Bioorg Med Chem Lett, 2011).

SMILES strings stand for the structures. pIC50: −log10 of the molar value. Where only a bound is given, the exact number is not on record here.

A word on the AUC: it is concentration integrated over time. A higher AUC goes with more exposure. In general, half-life refers to the time in which the quantity being followed falls by half. As usually defined, the CL/F is clearance divided by bioavailability, as obtained after extravascular dosing. The pIC50 is the negative decadic logarithm of the IC50, by convention in mol/L. High values mean a small IC50, low ones a large IC50.

Series [1] in a line: AUC in Sprague-Dawley rat at 10 mg/kg, po after 6 hrs. Format: ADME, organism-based. More on the design: time < 6 hr, dose 10 mg/kg, route oral. The note with it: plasma.
Series [2] is described as follows: AUC in Sprague-Dawley rat at 5 mg/kg, po after 24 hrs. Format: ADME, organism-based. More on the design: time < 24 hr, dose 5 mg/kg, route oral. The note with it: plasma.
Series [3] can be described thus: Half life in Sprague-Dawley rat at 5 mg/kg, po. Format: ADME, organism-based. More on the design: dose 5 mg/kg, route oral. The settings on record: in vivo.
A further series concerns Rattus norvegicus. The series is described as follows: Volume of distribution at steady state in Sprague-Dawley rat at 5 mg/kg, po. Format: ADME, organism-based. Also noted: dose 5 mg/kg, route oral. The settings on record: in vivo.
Series [4] can be described thus: Clearance in Sprague-Dawley rat at 5 mg/kg, po. Format: ADME, organism-based. Also noted: dose 5 mg/kg, route oral. The settings on record: in vivo.
Another series addresses Cytochrome P450 2D6 (Homo sapiens, UniProt P10635). Put plainly: Inhibition of CYP2D6. Format: ADME.
The next series concerns the target Cytochrome P450 3A4 (Homo sapiens, UniProt P08684). The series is described as follows: Inhibition of CYP3A4. Format: ADME.
In another series the target is Cytochrome P450 2C19 (Homo sapiens, UniProt P33261). The series is described as follows: Inhibition of CYP2C19. Format: ADME.
Series [5] addresses T1, C-X-C chemokine receptor type 3 (Mus musculus, UniProt O88410).
T1 sequence (O88410 whole entry): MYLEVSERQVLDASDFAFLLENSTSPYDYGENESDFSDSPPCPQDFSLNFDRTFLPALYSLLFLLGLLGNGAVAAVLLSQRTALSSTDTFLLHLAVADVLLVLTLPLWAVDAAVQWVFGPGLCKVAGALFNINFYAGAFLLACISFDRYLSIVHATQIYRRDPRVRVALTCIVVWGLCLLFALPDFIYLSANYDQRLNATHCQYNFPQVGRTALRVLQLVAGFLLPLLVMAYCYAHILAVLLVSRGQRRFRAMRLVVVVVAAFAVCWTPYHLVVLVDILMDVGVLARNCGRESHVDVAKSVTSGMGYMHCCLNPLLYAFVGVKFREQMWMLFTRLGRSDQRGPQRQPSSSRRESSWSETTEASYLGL
The series is described as follows: Antagonist activity at mouse CXCR3. Format: functional.

Series [6] has as its target T2, C-X-C chemokine receptor type 3 (Rattus norvegicus, UniProt Q9JII9).
T2 sequence (Q9JII9 whole entry): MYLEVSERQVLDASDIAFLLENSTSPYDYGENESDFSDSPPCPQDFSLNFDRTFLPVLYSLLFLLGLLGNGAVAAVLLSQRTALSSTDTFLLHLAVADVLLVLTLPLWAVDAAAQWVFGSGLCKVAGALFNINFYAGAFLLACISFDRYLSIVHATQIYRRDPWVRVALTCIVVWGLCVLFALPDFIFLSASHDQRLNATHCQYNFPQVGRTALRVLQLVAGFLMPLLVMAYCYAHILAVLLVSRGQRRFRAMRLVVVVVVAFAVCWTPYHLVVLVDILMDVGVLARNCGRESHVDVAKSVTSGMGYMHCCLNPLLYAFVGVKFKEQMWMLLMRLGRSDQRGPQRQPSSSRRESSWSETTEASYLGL
The series is described as follows: Antagonist activity at rat CXCR3. Format: functional.

Series [7] has as its target T3, C-X-C chemokine receptor type 3 (Homo sapiens, UniProt P49682).
T3 sequence (P49682 whole entry): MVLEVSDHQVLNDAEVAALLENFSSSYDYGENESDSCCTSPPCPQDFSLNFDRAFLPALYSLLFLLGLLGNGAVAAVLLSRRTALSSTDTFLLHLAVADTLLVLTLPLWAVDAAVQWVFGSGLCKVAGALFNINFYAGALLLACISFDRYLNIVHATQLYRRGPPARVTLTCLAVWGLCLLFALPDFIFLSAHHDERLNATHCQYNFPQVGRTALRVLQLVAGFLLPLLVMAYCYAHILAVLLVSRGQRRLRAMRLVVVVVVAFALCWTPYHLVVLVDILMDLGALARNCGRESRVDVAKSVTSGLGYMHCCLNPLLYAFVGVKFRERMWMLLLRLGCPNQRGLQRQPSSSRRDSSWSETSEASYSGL
The series is described as follows: Antagonist activity at human CXCR3. Format: functional.

Sequence of Cytochrome P450 2C19 (P33261 whole entry): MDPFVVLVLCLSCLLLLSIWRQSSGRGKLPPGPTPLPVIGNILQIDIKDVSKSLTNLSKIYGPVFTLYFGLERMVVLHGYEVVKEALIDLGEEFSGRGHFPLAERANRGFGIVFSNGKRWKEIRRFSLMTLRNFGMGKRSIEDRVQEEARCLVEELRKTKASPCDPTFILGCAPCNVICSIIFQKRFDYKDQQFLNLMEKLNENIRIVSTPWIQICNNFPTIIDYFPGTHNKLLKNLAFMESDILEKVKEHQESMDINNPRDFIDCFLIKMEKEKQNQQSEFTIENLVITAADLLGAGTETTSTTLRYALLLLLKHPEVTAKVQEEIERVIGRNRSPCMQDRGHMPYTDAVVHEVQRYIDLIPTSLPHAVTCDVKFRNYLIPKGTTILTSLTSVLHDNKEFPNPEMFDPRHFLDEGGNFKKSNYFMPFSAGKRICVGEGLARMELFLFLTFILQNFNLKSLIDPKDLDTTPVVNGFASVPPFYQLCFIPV
Sequence of Cytochrome P450 2D6 (P10635 whole entry): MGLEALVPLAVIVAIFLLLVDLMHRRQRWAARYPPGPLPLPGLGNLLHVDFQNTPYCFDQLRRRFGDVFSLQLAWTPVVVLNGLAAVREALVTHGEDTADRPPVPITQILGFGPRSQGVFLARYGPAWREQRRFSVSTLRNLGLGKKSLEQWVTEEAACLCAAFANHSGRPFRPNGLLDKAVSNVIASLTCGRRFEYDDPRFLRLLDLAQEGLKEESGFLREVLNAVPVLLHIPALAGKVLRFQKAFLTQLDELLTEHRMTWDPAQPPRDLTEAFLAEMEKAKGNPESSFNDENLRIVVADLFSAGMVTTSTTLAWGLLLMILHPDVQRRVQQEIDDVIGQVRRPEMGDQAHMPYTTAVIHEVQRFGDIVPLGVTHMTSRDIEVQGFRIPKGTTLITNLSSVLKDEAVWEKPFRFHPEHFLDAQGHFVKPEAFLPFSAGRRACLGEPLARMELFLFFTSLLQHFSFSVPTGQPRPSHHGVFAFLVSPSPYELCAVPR
Sequence of Cytochrome P450 3A4 (P08684 whole entry): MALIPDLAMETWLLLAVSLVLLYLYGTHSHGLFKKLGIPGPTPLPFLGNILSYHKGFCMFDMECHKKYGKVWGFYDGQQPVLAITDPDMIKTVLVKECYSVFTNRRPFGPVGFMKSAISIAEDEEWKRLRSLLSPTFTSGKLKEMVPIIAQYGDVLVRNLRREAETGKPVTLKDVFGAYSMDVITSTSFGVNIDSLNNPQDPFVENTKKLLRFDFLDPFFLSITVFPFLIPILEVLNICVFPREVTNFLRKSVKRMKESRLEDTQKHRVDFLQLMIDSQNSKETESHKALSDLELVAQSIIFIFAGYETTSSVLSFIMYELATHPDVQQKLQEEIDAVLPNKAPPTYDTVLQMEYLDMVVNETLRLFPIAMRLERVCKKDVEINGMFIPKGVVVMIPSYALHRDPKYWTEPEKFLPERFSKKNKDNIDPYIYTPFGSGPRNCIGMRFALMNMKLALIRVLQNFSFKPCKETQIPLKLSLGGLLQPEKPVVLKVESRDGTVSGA

Consider `C[C@H]1CN(c2ncc(C(=O)NCc3ccc(F)c(F)c3)cc2Cl)CCN1C1CCN(Cc2ccc(Cl)cc2)CC1`, for which the AUC at 6 h in [1] is 0.5 µM·h. In addition, in [2], the AUC at 24 h stood at 1.1 µM·h. In series [3], this compound had a half-life of 6.8 h. In the series on Rattus norvegicus, the Vdss was found to be 17.6 L/kg. In series [4], this compound showed a CL/F of 32.6 mL/min/kg. Also, the pIC50 against Cytochrome P450 2D6 is below 5.00; at Cytochrome P450 3A4, below 5.00; at Cytochrome P450 2C19, below 5.00; in series [5] it was 8.17; in [6] it was 8.00; in series [7], 8.22.
